Experiment [1] deals with MDA-MB-231. As to the kind of experiment: Growth inhibition of human MDA-MB-231 cells after 72 hrs by MTT assay. It counts as functional, cell-based. Particulars: MDA-MB-231, 72 h. For orientation: Tetrazolium assays rely on reduction of a dye to a coloured formazan, in cell work by metabolically active cells.
The subject of experiment [2] is MDA-MB-231. In words: Antimigratory activity against human MDA-MB-231 cells after 24 hrs by wound-healing assay. It counts as functional, cell-based. To be noted: MDA-MB-231, 24 h.
The subject of another experiment is MCF7. In words: Growth inhibition of human MCF7 cells after 72 hrs by MTT assay. It counts as functional, cell-based. To be noted: MCF7, 72 h.
The test system of experiment [3] is MDA-MB-231. As to the kind of experiment: Cytotoxicity against human MDA-MB-231 cells assessed as growth inhibition after 24 hrs by MTT assay. It counts as cell-based. Particulars: MDA-MB-231, 24 h.

These results are taken from ChEMBL document CHEMBL3390836, “Mannich- and LedererManasse-based analogues of the natural product S-(+)-curcuphenol as cancer proliferation and migration inhibitors” (Medchemcomm, 2012).

In general, IC50 refers to the concentration that gives 50% inhibition. In the case of `CCOC(CCN1COc2c([C@@H](C)CCC=C(C)C)ccc(C)c2C1)OCC`, the half-maximal inhibitory concentration (IC50) is 11.3 µM in the experiment on MDA-MB-231 [1], 3.1 µM with MDA-MB-231 [2], 13.2 µM in the experiment on MCF7 and over 20 µM in the experiment with MDA-MB-231 [3].
For `CCOC(CCNCc1c(C)ccc([C@@H](C)CCC=C(C)C)c1O)OCC`, the IC50 in the experiment on MDA-MB-231 [1] is 14.9 µM; in the experiment on MDA-MB-231 [2], over 20 µM; with MCF7, 10.3 µM; with MDA-MB-231 [3], over 20 µM.
